Experimental data published in patent US20120270928A1, “MICRORNA COMPOUNDS AND METHODS FOR MODULATING MIR-21 ACTIVITY” (REGULUS THERAPEUTICS INC., priority 2011, published 2012).
Strand notation (5' to 3'): a small letter for the sugar, then the base; units joined by * are phosphorothioate-linked, units joined directly phosphodiester-linked; [ ] holds rarer units or linkages, { } end groups; capitals alone tell only the bases. e = 2'-O-(2-methoxyethyl) (MOE); l = locked nucleic acid (LNA); k = constrained ethyl (cEt); [5mC] = 5-methylcytosine; d = 2'-deoxy (DNA)

System: miR-21
Assay: miR-21 luciferase sensor assay in Hela cells
Format: cell-based
Conditions: for luciferase value normalized to beta-galactosidase activity / inhibition of miR-21 activity in the luciferase assay (in words): Hela cells
Protocol: The compounds were assessed for miR-21 inhibitory activity in a luciferase assay. A microRNA luciferase sensor construct was engineered using pGL3-MCS2 (Promega). The construct was introduced into Hela cells to test the ability of anti-miR compounds to inhibit activity of miR-21. In this assay, miR-21 present in the Hela cells binds to its cognate site(s) in the luciferase sensor construct, and suppresses luciferase expression. When the appropriate anti-miR is introduced into the cells, it binds to miR-21 and relieves suppression of luciferase expression. Thus, in this assay anti-miRs that are effective inhibitors of miR-21 expression will cause an increase in luciferase expression.
Hela cells (ATCC), stably transfected with a luciferase construct engineered to contain a sequence complementary of miR-21, were seeded in T-170 flasks (BD Falcon) at 3.5*10^6 cells/flask. Hela cells were grown in Dulbecco's Modified Eagle Medium with High Glucose (Invitrogen).
Each flask of Hela cells was transfected with 0.5 ug of a phRL sensor plasmid (Promega) expressing Renilla to be used in normalization. Hela cells were transfected using 20 ul Lipofectamine 2000/flask (Invitrogen). After 4 hours of transfection, cells were washed with PBS and trypsinized Hela cells were plated at 40 k/well in 24 well plates (BD Falcon) and left overnight.
Hela cells were transfected with anti-miRs using Lipofectin (Invitrogen) at 2.5 ul Lipofectin/100 nM ASO/ml Opti-MEM I Reduced Serum Medium (Invitrogen) for 4 hours. After ASO transfection, Hela cells were refed with Dulbecco's Modified Eagle Medium with High Glucose (Invitrogen).
Hela cells are passively lysed and luciferase activity measured using the Dual-Luciferase Reporter Assay System (Promega).
The luciferase assay was performed to test the ability of anti-miRs with the nucleoside patterns described herein to inhibit the activity of miR-21. Results were compared to a ‘mock’ treatment, in which cells received no anti-miR treatment. The experiment was repeated and results of two experimental replicates are shown in the following Table B, as the luciferase value normalized to beta-galactosidase activity.
The luciferase assay was performed as described herein to test the ability of anti-miRs in Table F to inhibit the activity of miR-21. Results were compared to a ‘mock’ treatment, in which cells received no anti-miR treatment. The experiment was repeated and results of two experimental replicates are shown in the following Table D, as fold change in luciferase value relative to the mock treatment.

[1] = 500 nM oligonucleotide, two experimental replicates
[2] = concentration of anti-miR compound 0.2 (unit not given)
[3] = concentration of anti-miR compound 0.6 (unit not given)
[4] = concentration of anti-miR compound 1.9 (unit not given)
[5] = concentration of anti-miR compound 5.6 (unit not given)
[6] = concentration of anti-miR compound 16.7 (unit not given)
[7] = concentration of anti-miR compound 50.0 (unit not given)

Substance | luciferase value normalized to beta-galactosidase activity (4 nM oligonucleotide) | luciferase value normalized to beta-galactosidase activity (20 nM oligonucleotide) | luciferase value normalized to beta-galactosidase activity (100 nM oligonucleotide) | luciferase value normalized to beta-galactosidase activity [1] | luciferase value normalized to beta-galactosidase activity (.16 nM oligonucleotide) | luciferase value normalized to beta-galactosidase activity (.8 nM oligonucleotide) | inhibition of miR-21 activity in the luciferase assay (in words) | fold change in luciferase value relative to the mock treatment [2] [fold change] | fold change in luciferase value relative to the mock treatment [3] [fold change] | fold change in luciferase value relative to the mock treatment [4] [fold change] | fold change in luciferase value relative to the mock treatment [5] [fold change] | fold change in luciferase value relative to the mock treatment [6] [fold change] | fold change in luciferase value relative to the mock treatment [7] [fold change]
Ae^MeCAST^MeCAGST^MeCTGASTASAGS^MeCTAe (ACATCAGTCTGATAAGCTA; listed as DNA, chemistry not fully specified) [Compound 25071] | 50 | 63 | 53 | 42 | 48 | 36 | – | – | – | – | – | – | –
AE^MeCLAETE^MeCLAEGETE^MeCLTEGEAE^MeTLAEAEGE^MeCLTEAE (antisense eA*l[5mC]*eA*eT*l[5mC]*eA*eG*eT*l[5mC]*eT*eG*eA*lT*eA*eA*eG*l[5mC]*eT*eA) [Compound 25117, variation of 25070: each non-bicyclic nucleoside is 2′-MOE, each cytosine 5-methyl cytosine] | – | – | – | – | – | – | not effective inhibitors of miR-21 | 1.05 | 1.15 | 1.14 | 3.64 | 7.36 | 2.91
AeTe^MeCeASGSTe^MeCeTeGSASTeAeASGS^MeCeTeAe [Compound 25077] | 45 | 33 | 42 | 40 | 34 | 33 | – | – | – | – | – | – | –
AE^MeCSAT^MeCSAGT^MeCSTGATSAAG^MeCSTAS (antisense eA*k[5mC]*dA*dT*k[5mC]*dA*dG*dT*k[5mC]*dT*dG*dA*kT*dA*dA*dG*k[5mC]*dT*kA; further chemistry not given here) [Compound 25924, variation of 25070: 3′-terminal cEt nucleoside and each cytosine is a 5-methyl cytosine] | – | – | – | – | – | – | inhibition of miR-21 in a dose-dependent manner | 1.10 | 1.25 | 1.37 | 7.80 | 13.01 | 8.99
AE^MeCSAT^MeCSAGT^MeCSTGATSAAG^MeCSTAE (antisense ACATCAGTCTGATAAGCTA; MOE ends, cEt, 5-methyl C, unmarked nucleosides not given here, further chemistry not given here) [Compound 25922, variation of 25070: each cytosine is a 5-methyl cytosine] | – | – | – | – | – | – | inhibition of miR-21 in a dose-dependent manner | 1.02 | 1.10 | 1.34 | 8.81 | 11.60 | 11.46
Te^MeCASA^MeCAST^MeCAGST^MeCTGASTAAGS^MeCTAe (TCAACATCAGTCTGATAAGCTA; cEt, 5-methyl C and phosphorothioate modifications, code letters not given here, further chemistry not given here) [Compound 25067] | 43 | 41 | 30 | 42 | 38 | 23 | – | – | – | – | – | – | –
AeTe^MeCeAeGeTe^MeCeTeGSASTeASASGe^MeCeUSAS [Compound 25731] | 32 | 39 | 38 | 59 | 34 | 45 | – | – | – | – | – | – | –
AE^MeCSAETE^MeCSAEGETE^MeCSTEGEAE^MeTSAEAEGE^MeCSTEAE (antisense eA*k[5mC]*eA*eT*k[5mC]*eA*eG*eT*k[5mC]*eT*eG*eA*kT*eA*eA*eG*k[5mC]*eT*eA; further chemistry not given here) [Compound 25116, variation of 25070: each non-bicyclic nucleoside is 2′-MOE, each cytosine 5-methyl cytosine] | – | – | – | – | – | – | not effective inhibitors of miR-21 | 1.06 | 0.98 | 1.06 | 2.47 | 5.64 | 1.98
